pEC50: −log10 of the molar value.
Target: glucokinase (Homo sapiens (Human), UniProt P35557)
Experiment: Glucokinase Activation Assay
Format: biochemical
Conditions: 5 mM glucose, 100 nM glucokinase, G6PDH-coupled, absorbance at 340 nm, pH 7.1
Experimental: The final assay volume was 200 uL and the final buffer conditions used in this assay were as follows: 25 mM HEPES, 5 mM glucose, 1 mM ATP, 2 mM MgCl2, 1 mM NAD, 1 mM DTT, 8.5 U/mL G6PDH, 100 nM glucokinase, and 25 mM KCl. The buffer pH was 7.1. The mixture A was first made containing KCl, MgCl2, DTT and Glucose in HEPES buffer. The mixture B was made containing NAD and ATP. The test compound in DMSO solution, the mixture A, the mixture B and G6PDH were first mixed in a 96-well plate. Glucokinase was then added to initiate the reaction, and the absorbance at 340 nm was monitored every 5 mins. The activity of glucokinase was represented by the initial generation rate of glucose-6-phosphate, which was calculated by drawing the slope values from the absorbance changing curve at 340 nm vs. the time points.

Sequence of glucokinase (P35557 whole entry, species assumed): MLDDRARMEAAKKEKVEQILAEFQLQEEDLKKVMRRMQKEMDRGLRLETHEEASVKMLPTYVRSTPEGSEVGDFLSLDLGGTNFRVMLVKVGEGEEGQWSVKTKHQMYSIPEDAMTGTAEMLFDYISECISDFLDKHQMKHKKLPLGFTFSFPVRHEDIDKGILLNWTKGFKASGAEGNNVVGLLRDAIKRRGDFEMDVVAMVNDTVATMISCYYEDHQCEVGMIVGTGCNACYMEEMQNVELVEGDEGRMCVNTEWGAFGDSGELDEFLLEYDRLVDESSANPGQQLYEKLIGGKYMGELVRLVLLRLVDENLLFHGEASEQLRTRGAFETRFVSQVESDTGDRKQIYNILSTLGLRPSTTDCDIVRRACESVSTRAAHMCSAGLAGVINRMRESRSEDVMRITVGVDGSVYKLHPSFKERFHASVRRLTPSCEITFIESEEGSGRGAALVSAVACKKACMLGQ

Row | pEC50 | SMILES
1 | 5.70 | CS(=O)(=O)c1ccc(Oc2ccc(Nc3ccc(C(=O)O)cn3)cc2CN2CCCC2=O)cn1 [Example 6, 6-(4-(6-(methylsulfonyl)pyridin-3-yloxy)-3-((2-oxopyrrolidin-1-yl)methyl)phenylamino) nicotinic acid]
2 | 5.70 | Cc1cnc(Nc2ccc(Oc3ccc(S(C)(=O)=O)nc3)c(CN3CCCC3=O)c2)s1 [Example 13, 1-(2-(6-(methylsulfonyl)pyridin-3-yloxy)-5-(5-methylthiazol-2-ylamino)benzyl)pyrrolidin-2-one]
3 | 5.30 | CN(C)C(=O)c1ccc(Oc2ccc(Nc3ccccn3)cc2CN2CCCC2=O)cn1 [Example 65, N,N-dimethyl-5-(2-((2-oxopyrrolidin-1-yl)methyl)-4-(pyridin-2-ylamino)phenoxy)picolinamide]
4 | 5.82 | CN(C)C(=O)c1ccc(Oc2ccc(Nc3ccc(CCC(=O)O)cn3)cc2CN2CCCC2=O)cn1 [Example 78, 3-(6-(4-(6-(dimethylcarbamoyl)pyridin-3-yloxy)-3-((2-oxopyrrolidin-1-yl)methyl)phenylamino)pyridin-3-yl) propanoic acid]

Reference: US9409900B2, “Compound for increasing kinase active and application thereof” (FUJIAN HAIXI PHARMACEUTICALS, INC., priority 2010, dated 2016)
